# Source: US20090215895A1, “Therapeutic and carrier molecules” (PEPLIN BIOLIPIDS PTY LTD, priority 2004, published 2009)
# Entries after “also recorded” stand apart in the source; their conditions may differ.
# Legend:
# cancer cells = test: Killing of cancer cells; type: cell-based
# PKC isozyme ε = target: T1, PKC isozyme ε (Homo sapiens, UniProt Q02156); test: PMA-induced PKC translocation in HL-60 cells (Western blot); type: cell-based; set-up: key: +++: strong inhibition of PKC activation; −: no inhibition of PKC activation; settings: 20 μM, 60 min
# T1 construct: endogenous in cells; host or cells: HL-60
# T1 sequence (Q02156 1-737): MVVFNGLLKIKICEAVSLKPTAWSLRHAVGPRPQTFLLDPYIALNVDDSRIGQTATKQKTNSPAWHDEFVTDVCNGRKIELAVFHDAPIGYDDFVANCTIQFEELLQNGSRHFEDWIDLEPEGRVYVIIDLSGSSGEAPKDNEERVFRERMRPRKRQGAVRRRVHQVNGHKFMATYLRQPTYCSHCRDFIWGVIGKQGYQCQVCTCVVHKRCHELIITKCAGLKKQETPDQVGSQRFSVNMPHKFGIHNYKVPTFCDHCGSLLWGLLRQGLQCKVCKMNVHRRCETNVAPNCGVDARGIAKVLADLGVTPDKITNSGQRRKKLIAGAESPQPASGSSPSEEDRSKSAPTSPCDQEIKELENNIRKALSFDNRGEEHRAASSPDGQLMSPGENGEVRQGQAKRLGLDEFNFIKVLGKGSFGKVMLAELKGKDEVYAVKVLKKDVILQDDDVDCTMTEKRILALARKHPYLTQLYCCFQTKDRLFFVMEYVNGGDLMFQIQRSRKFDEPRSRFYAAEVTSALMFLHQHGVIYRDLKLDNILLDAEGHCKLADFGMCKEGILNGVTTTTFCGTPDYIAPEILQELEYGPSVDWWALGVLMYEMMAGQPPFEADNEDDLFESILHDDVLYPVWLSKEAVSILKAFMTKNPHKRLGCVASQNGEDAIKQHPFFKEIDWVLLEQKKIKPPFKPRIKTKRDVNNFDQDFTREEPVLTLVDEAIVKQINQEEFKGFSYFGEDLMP
# Method: (§1) The effects of nitroanalogs of PUFAs on PKC activation were determined. Lx compounds at a concentration of 20 μM were incubated with the HL-60 cell line (final condition 10^6 cells/ml) for 60 min. PKC activation was then attempted to be induced by PMA. PKC enzyme translocation was quantitated by Western blot.
# PKC isozyme α = target: T2, PKC isozyme α (Homo sapiens, UniProt P17252); test: as above; type: cell-based; set-up: key: +++: strong inhibition of PKC activation; −: no inhibition of PKC activation; settings: 20 μM, 60 min
# T2 construct: endogenous in cells; host or cells: HL-60
# Method: as §1
# PKC isozyme δ = target: T3, PKC isozyme δ (Homo sapiens, UniProt Q05655); test: as above; type: cell-based; set-up: key: +++: strong inhibition of PKC activation; −: no inhibition of PKC activation; settings: 20 μM, 60 min
# T3 construct: endogenous in cells; host or cells: HL-60
# Method: as §1
# PKC isozyme β2 = target: T4, PKC isozyme β2 (Homo sapiens, UniProt P05771); test: as above; type: cell-based; set-up: key: +++: strong inhibition of PKC activation; −: no inhibition of PKC activation; settings: 20 μM, 60 min
# T4 construct: endogenous in cells; host or cells: HL-60
# Method: as §1
# neutrophil NADPH oxidase = test: Neutrophil respiratory burst (NADPH oxidase activation, chemiluminescence); type: cell-based, human; settings: 20 μM, 10 min, lucigenin-dependent chemiluminescence
# Method: The structure of PT2 is shown in (c) above. In this screening assay, neutrophils were prepared from the blood of healthy volunteers. Freshly collected blood was layered onto a Hypaque-Ficoll medium of density 1.114 and centrifuged at 400 g for 30 mins at room temperature. After centrifugation, the leukocytes resolved into two distinct bands, with neutrophils being present in the second band (Ferrante and Thong, J. Immun. Methods 48:81-85, 1982).
# Activation of the neutrophil NADPH oxidase was measured by lucigenin-dependent chemiluminescence following a 10 min incubation of PT2 (20 μM, final concentration) with 1×10^6 neutrophils from different donors (Power et al, J. Immunol. 159:2952-2959, 1997). Arachidonic acid (20:4, n-6) was used as a positive stimulator of the oxidase
# Neutrophil respiratory burst was determined as previously described (Li et al, J. Clin. Invest. 97:1605-1609, 1996).
# [1] = Formalin-induced pain test (hind paw licking time); type: in vivo; settings: for % inhibition of pain response, Phase I (0-5 mins) / % inhibition of pain response, Phase II (15-20 mins): 30 min prior to formalin, mean of 5 animals
# Method: (§2) Investigations of the effects of PT2 on pain induced by phenylquinolic acid (PQ writhing) and formalin have been made. In both the PQ writhing test (FIG. 3) and the formalin algesia test (FIG. 4), PT2 administered by intraperitoneal inoculation reduced pain and compared favourably with pain reduction by aspirin (oral, 100 mg/kg). In these tests, the EPUFA was administered 30 min before the pain stimulus and effects recorded over the following 20 min.
# Investigations of PT2 in the formalin-induced analgesia model looking specifically at the biphasic response have also been undertaken and are shown in Table 1. It is well documented that in this model, aspirin suppresses only pain related to the inflammatory process (15-20 mins post-administration of formalin), while morphine suppresses pain in both phases of the response (0-5 min and 15-20 min).
# Compounds were administered intraperationedly (ip) 30 min prior to the administration of formalin (0.02 ml, 1% solution) via subplantar injection into the right hind paw. Reduction of the induced hind paw licking time recorded during the following 0-5 min period (Phase I response) or 15-20 min period (Phase II response) was determined. The data in Table 1 are the mean responses of 5 animals in each group.
# [2] = PQ (phenylquinolic acid) writhing test; type: in vivo; settings: intraperitoneal, 30 min before pain stimulus
# Method: as §2
# HUVEC = test: Agonist-enhanced neutrophil adherence to HUVEC; type: cell-based, human; settings: 20 μmol/l, 1 hr pre-treatment, TNF 4 hr
# Method: FIG. 11 is a representation showing effect of β-oxa; β-thia and natural PUFA on TNF-enhanced neutrophil adherence to HUVEC. HUVEC were pre-treated with the fatty acids (20 μmol/l) for 60 min at 37° C. before being stimulated with TNF (125 U/200 μl medium) for 4 hr at 37° C. The cells were then co-incubated with neutrophils (5×10^5 cells/well) at 37° C. for 30 min and the degree of neutrophil adherence quantitated. The results are expressed as % of control and represent the mean±SEM of three separate experiments each performed in triplicate. * p<0.05, ***p<0.001, for significant differences between pre-treatment with fatty acid and control (one-way analysis of variance followed by the Dunnett test for multiple comparisons).
# Adhesion of neutrophils, prepared by the rapid-single-step method (Ferrante et al, J. Immun. Methods 36:109-117, 1980), to HUVEC isolated from umbilical cords was carried out essentially as described (Huang et al, 1997 supra).
# The magnitude of the suppressive effect of -MP3 was dependent on-pre-treatment time and concentration with significant effects observed with a pre-treatment time of 1 hr and a concentration of ≧5 μmol/l.
# E-selectin = test: Adhesion molecule expression on HUVEC (ELISA, mRNA slot blot); type: cell-based, human; settings: 20 μmol/l, 60 min pre-treatment
# Method: (§3) FIG. 13 is a representation showing effect of MP3 (β-oxa-23:4n-6) and 20:4n-6 on time-related changes in TNF-α-induced E-selectin, ICAM-1 and VCAM-1 expression on HUVEC. HUVEC were pre-treated with 20 μmol/l β-oxa-23:4n-6 (closed triangles), 20 μmol/l 20:4n-6 (open squares), or DPC (control) for 60 min and then further incubated with TNF-α (125 U/200 μl medium) for up to 24 hr. The expression of E-selectin, ICAM-1 and VCAM-1 adhesion molecules was determined by ELISA. The results are expressed as % of control and represent the mean±SEM of three separate experiments each performed in triplicate. * p<0.05, **p<0.01, ***p<0.001, for significant differences between pre-treatment with fatty acid and corresponding control at a particular time point (one-way analysis of variance followed by the Dunnett test for multiple comparisons). Inset: The effect of β-oxa-23:4n-6 on TNF-α-induced expression of E-selectin mRNA in HUVEC. HUVEC were pre-incubated with β-oxa-23:4n-6 (20 μmol/l) or DPC (control) in 1 ml of medium at 37° C. for 60 min. After the addition of TNF-α, the cells were further incubated at 37° C. for 2 hr. E-selectin mRNA expression was then determined and the results expressed as relative %. Results are the mean±SEM of three separate experiments each performed in quadruplicate. *p<0.0001, for significant differences between pre-treatment with β-oxa-23:4n-6, and control (two-tailed Student's t-test for unpaired data).
# (§4) HUVEC were stimulated with TNF, bacterial lipopolysaccharide (LPS) or PMA for 24 hr. Expression of E-selectin, ICAM-1 and VCAM-1 was determined by an enzyme-linked immunosorbent assay (ELISA) or as mRNA using a slot blot technique (Huang et al 1997 supra).
# ICAM-1 = test: Adhesion molecule expression on HUVEC (ELISA); type: cell-based, human; settings: 20 μmol/l, 60 min pre-treatment
# Method: as §3, §4
# VCAM-1 = test: Adhesion molecule expression on HUVEC (ELISA); type: cell-based, human; settings: 20 μmol/l, 60 min pre-treatment
# Method: as §3, §4
# IκBα = test: TNF-induced degradation of IκBα in HUVEC (Western blot); type: cell-based; settings: Homo sapiens, 20 μmol/l, 30 min pre-treatment, TNF 10 min
# Method: FIG. 17 is a representation showing (A) the effect of MP3 (β-oxa 23:4n-6) and DHA on TNF-induced degradation of IκBα in HUVEC. Cells were pre-treated with the fatty acids (20 μmol/l) for 30 min and then stimulated with TNF (125 U/ml) for 10 min. After cell lysis the proteins were analyzed by Western blots using anti-IκBα antibodies. (B) The effects of β-oxa-23:4n-6 on TNF-induced activation of transcriptional factor, NFκB in HUVEC. Cells were pre-treated with β-oxa-23:4n-6 (20 μmol/l) for 30 min and then stimulated with TNF for 2 hr. After cell lysis, nuclear fractions were prepared, nuclear proteins separated by SDS PAGE (12% w/v gel), transferred to nitrocellulose and probed with an anti-NFκB p65 antibody (Santa Cruz). […] (C) The effect of β-oxa 23:4n-6 on TNF-stimulated activation of IKK. Cells were pre-treated with β-oxa 23:4n-6 (20 μmol/l) for 30 min and then stimulated with TNF for 5 min. After cell lysis IKK was immunoprecipitated with anti-IKKα antibody and kinase activity determined. […]
# Proteins (50 μg) were separated by SDS PAGE (12% w/v gel), transferred to nitrocellulose and probed with an anti-NFκB p65 or anti-IκBα antibody (Santa Cruz Biotech, Santa Cruz, Calif.). Immunocomplexes were detected by enhanced chemiluminescence (Hii et al, 1998 supra).
# [3] = In vitro assays (not specified)
# T4 sequence (P05771 1-673 isoform P05771-2): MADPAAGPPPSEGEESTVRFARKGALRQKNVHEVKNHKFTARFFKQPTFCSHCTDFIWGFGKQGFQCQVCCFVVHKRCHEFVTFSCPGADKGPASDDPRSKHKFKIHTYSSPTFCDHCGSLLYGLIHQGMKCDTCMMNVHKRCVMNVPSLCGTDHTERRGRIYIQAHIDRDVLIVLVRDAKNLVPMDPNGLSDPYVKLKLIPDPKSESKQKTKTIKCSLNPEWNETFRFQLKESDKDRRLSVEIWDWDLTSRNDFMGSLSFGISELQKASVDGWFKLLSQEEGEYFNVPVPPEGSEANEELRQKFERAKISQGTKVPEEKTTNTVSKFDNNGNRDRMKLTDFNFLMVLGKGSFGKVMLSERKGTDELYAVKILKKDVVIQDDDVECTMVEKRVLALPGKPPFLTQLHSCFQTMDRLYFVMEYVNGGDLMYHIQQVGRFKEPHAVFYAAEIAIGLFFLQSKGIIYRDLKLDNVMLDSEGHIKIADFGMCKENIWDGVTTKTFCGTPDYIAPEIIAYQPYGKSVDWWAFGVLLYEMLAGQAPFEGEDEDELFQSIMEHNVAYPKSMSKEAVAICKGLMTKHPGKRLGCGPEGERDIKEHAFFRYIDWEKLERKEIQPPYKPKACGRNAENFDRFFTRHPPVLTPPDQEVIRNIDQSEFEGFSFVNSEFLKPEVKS
# T3 sequence (Q05655 whole entry): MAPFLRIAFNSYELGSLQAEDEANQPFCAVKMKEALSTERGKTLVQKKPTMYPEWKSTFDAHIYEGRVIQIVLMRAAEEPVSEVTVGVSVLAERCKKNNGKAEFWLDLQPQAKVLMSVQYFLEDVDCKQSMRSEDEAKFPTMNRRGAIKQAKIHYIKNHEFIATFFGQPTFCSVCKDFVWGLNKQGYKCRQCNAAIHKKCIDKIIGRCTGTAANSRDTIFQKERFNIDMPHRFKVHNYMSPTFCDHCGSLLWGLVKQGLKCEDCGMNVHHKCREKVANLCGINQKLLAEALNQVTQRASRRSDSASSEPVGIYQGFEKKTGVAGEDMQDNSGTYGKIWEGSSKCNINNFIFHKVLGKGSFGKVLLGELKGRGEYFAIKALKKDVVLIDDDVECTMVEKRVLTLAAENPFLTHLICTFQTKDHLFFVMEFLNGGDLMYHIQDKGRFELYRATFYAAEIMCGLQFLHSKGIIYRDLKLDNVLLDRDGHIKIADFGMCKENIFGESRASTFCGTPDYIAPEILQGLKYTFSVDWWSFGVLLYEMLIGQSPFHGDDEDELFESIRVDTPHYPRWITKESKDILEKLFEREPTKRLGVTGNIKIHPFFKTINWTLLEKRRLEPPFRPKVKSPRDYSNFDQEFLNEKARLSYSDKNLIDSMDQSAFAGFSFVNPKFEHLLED
compound,measurement,setting,value
CCCCCCCCCCCCCCCCCC(CCC(=O)O)(CCC(=O)O)[N+](=O)[O-] [Lx8],Killing of cancer cells,cancer cells,kills cells very poorly
same,"Inhibition of PKC activation, isozyme ε",PKC isozyme ε,+++
same,"Inhibition of PKC activation, isozyme α",PKC isozyme α,+++
same,"Inhibition of PKC activation, isozyme δ",PKC isozyme δ,+++
same,"Inhibition of PKC activation, isozyme β2",PKC isozyme β2,+++
CCCCC/C=C\C/C=C\C/C=C\C/C=C\CCCC(=O)NC(CC(=O)O)C(=O)O (centres unmarked) [PT2],Stimulation of the neutrophil respiratory burst,neutrophil NADPH oxidase,lacks the ability to stimulate the neutrophil respiratory burst
same,"% inhibition of pain response, Phase I (0-5 mins)",[1]; 30 mg/kg ip,0%
same,"% inhibition of pain response, Phase II (15-20 mins)",[1]; 30 mg/kg ip,41%
same,"% inhibition of pain response, Phase I (0-5 mins)",[1]; 100 mg/kg ip,30%
same,"% inhibition of pain response, Phase II (15-20 mins)",[1]; 100 mg/kg ip,97%
same,Pain reduction in formalin test,"[1]; intraperitoneal, 30 min before pain stimulus",reduced pain; also recorded: acts similarly to aspirin in having its major effect on the later phase of the pain response
same,Pain reduction in PQ writhing test,[2],reduced pain
"CCCCC/C=C\C/C=C\C/C=C\C/C=C\CCCC(=O)O [arachidonic acid, reference compound]",Inhibition of TNF-α-enhanced neutrophil adhesion to HUVEC,HUVEC,no significant effect
same,Stimulation of the neutrophil respiratory burst,neutrophil NADPH oxidase,able to elicit a strong respiratory burst
same,Suppression of TNF-α-induced E-selectin expression on HUVEC,E-selectin,no significant effect
same,Suppression of TNF-α-induced ICAM-1 expression on HUVEC,ICAM-1,no significant effect
same,Suppression of TNF-α-induced VCAM-1 expression on HUVEC,VCAM-1,no significant effect
CCCCC/C=C\C/C=C\C/C=C\C/C=C\CCCC(CCC(=O)O)(CCC(=O)O)[N+](=O)[O-] [Lx9],Killing of cancer cells,cancer cells,strong in killing cancer cells
same,"Inhibition of PKC activation, isozyme α",PKC isozyme α,−
same,"Inhibition of PKC activation, isozyme β2",PKC isozyme β2,+++
"CC/C=C\C/C=C\C/C=C\C/C=C\C/C=C\C/C=C\CCC(=O)O [22:6n-3, docosahexaenoic acid, reference compound]",Inhibition of TNF-α-enhanced neutrophil adhesion to HUVEC,HUVEC,no significant effect
same,inhibition at 20 µM,IκBα,< 50%
β-oxa-23:0 [MP1],Biological activity in in vitro assays,[3],biologically inactive
